The values that follow come from ChEMBL document CHEMBL4219058, “Discovery of new thienopyrimidine derivatives as potent and orally efficacious phosphoinositide 3-kinase inhibitors” (Bioorg Med Chem, 2018).

Molecules are shown by their SMILES.

For series [1], the system named is U-87 MG. Put plainly: Antiproliferative activity against human U87MG cells after 4 days by Celltiter-Glo luminescence cell viability assay. The class given is functional, cell-based, U-87MG ATCC. The following applies: 96 h. For orientation: ATP-based viability assays read luminescence as a measure of living cells.
A short description of series [2]: Effective permeability of the compound measured after 5 hrs by PAMPA. The series is classed as ADME. The following applies: read-out: Peff.
The target of series [3] is Phosphatidylinositol 4,5-bisphosphate 3-kinase catalytic subunit gamma isoform (Homo sapiens, UniProt P48736). Put plainly: Inhibition of PI3Kgamma (unknown origin) using PIP2 as substrate measured after 1 hr by Kinase-Glo luminescence assay.
Phosphatidylinositol 4,5-bisphosphate 3-kinase catalytic subunit gamma isoform, sequence (P48736 whole entry, canonical isoform): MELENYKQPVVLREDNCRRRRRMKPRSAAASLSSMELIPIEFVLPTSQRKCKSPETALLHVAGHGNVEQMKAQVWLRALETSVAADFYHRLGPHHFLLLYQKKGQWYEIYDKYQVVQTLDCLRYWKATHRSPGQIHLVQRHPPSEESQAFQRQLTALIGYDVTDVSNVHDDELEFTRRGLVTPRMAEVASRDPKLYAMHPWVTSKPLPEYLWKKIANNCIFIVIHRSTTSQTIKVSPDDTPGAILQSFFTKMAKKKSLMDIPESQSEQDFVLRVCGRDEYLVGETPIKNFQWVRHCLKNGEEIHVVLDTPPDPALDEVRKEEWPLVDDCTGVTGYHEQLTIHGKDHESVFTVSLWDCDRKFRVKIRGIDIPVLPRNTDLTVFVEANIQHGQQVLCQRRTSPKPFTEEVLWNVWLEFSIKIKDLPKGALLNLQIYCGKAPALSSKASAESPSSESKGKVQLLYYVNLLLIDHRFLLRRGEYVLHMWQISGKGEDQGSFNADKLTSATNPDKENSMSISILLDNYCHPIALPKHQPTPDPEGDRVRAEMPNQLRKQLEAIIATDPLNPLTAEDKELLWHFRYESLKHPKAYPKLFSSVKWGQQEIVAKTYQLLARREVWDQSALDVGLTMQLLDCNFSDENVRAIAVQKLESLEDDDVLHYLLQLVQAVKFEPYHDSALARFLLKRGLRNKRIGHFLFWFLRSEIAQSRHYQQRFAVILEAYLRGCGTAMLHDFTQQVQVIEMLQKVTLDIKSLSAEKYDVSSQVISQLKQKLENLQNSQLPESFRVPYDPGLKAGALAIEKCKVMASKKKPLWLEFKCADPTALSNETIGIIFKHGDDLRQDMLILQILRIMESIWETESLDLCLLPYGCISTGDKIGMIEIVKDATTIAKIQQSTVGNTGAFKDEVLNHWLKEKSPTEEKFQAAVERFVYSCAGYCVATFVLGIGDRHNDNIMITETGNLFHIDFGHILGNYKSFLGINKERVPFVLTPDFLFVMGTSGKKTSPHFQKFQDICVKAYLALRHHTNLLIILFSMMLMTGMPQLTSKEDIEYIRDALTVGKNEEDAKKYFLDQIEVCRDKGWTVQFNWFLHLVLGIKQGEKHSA

In series [1], `COc1ccc(-c2cc3c(C)nc(N)nc3n([C@H]3CC[C@H](OCCO)CC3)c2=O)cn1` [PF-04691502] came in with an IC50 of 340 nM.

Turning to `COc1ncc(-c2cc3c(C)nc(N)nc3s2)cc1NS(=O)(=O)c1ccc(F)cc1F`, the Papp at 5 h in series [2] was found to be 4.8 ×10⁻⁶ cm/s.

As for `COc1ncc(-c2cc3c(C)nc(NC(C)=O)nc3s2)cc1NS(=O)(=O)c1ccc(F)cc1F`, the Papp at 5 h in series [2] is 9.6 ×10⁻⁶ cm/s. The molecule further came in with a half-maximal inhibitory concentration (IC50) in series [3] of 11 nM.

By IC50 is commonly meant the point on the concentration scale where inhibition reaches its midpoint. A lower IC50 goes with greater potency in that assay.
